Data on 45 compounds can be found in ChEMBL document CHEMBL2303647, “Data associated with the publication PLoS ONE, 8(3), e57888, (2013) PMID: 23505445. Compounds: GSK PKIS; Assays: NIH NCATS”.

For assay [1], the target named is T1, Coelenterazine h 2-monooxygenase (Renilla reniformis, UniProt P27652).
T1 sequence (P27652 whole entry): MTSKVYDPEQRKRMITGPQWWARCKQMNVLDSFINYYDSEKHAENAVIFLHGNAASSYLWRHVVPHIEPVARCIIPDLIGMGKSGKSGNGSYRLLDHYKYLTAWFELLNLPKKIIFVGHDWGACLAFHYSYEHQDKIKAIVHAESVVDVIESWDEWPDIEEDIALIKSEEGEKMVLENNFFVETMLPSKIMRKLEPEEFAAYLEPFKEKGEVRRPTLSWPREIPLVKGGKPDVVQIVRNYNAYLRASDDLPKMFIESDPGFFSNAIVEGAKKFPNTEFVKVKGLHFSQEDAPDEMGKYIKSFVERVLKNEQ
Description: GSK_PKIS: Inhibition of Sea Pansy Luciferase (Data from PubChem: AID 652015) [NIH NCATS]

In assay [2] the target is Luciferin 4-monooxygenase (Photinus pyralis, UniProt P08659).
Sequence of Luciferin 4-monooxygenase (P08659 whole entry): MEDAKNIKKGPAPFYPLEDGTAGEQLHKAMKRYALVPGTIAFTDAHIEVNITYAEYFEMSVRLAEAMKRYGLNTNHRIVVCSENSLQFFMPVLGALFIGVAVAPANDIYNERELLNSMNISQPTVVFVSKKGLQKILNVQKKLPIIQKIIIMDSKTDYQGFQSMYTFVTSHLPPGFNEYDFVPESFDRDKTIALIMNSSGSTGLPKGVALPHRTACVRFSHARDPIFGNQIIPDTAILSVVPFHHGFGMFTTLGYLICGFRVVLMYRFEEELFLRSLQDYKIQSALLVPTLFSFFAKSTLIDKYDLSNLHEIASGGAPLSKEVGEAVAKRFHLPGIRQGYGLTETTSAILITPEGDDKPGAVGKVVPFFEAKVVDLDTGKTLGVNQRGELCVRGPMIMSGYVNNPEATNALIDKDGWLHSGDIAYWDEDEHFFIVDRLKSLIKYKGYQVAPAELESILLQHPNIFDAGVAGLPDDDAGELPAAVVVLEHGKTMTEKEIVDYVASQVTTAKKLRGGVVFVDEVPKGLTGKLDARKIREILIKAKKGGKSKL
Description: GSK_PKIS: Inhibition of Firefly Luciferase (Data from PubChem: AID 652016) [NIH NCATS]

SMILES strings stand for the structures.

The term AC50 denotes the midpoint of the concentration-response curve, whichever way the signal moves. With `O=C(O)/C=C/C(=O)O.OCCCNc1nccc(-c2c(-c3ccc(F)cc3)nn3cc(C(F)(F)F)ccc23)n1` [GW569293E], the figures for the AC50 result in assay [1] and in assay [2] (read-out: AC50) were “Phenotype: Inactive; Curve_Description: None” and 32.6 µM, respectively.

With `O=C(Nc1n[nH]c2nnc(-c3cccnc3)cc12)C1CC1.O=C(O)C(F)(F)F`, the concentration at half-maximal activity (AC50) entry in assay [1] and in assay [2] was “Phenotype: Inactive; Curve_Description: None” each time.

Consider `Cn1c(-c2nonc2N)nc2cnccc21`, for which the AC50 entry in assay [1] and in assay [2] was “Phenotype: Inactive; Curve_Description: None” in each case.

Regarding `Fc1ccc(Nc2nccc(-c3c(-c4ccc(C(F)(F)F)cc4)nn4ncccc34)n2)cc1F` [GW828529X], the AC50 result in assay [1] and in assay [2] was “Phenotype: Inactive; Curve_Description: None” throughout.

Consider `NC(=O)c1ccc(Oc2nccc(-c3c(-c4ccc(F)cc4)ncn3C3CCNCC3)n2)cc1`, for which the figures for the AC50 result in assay [1] and in assay [2] (read-out: AC50) were “Phenotype: Inactive; Curve_Description: None” and 29.1 µM, respectively.

Regarding `COc1cc2c(cc1Nc1nc(N3CCc4ccccc43)c3cc[nH]c3n1)N(C(=O)CN(C)C)CC2` [GSK-2186269A], the AC50 in assay [1] (read-out: AC50) is 23.1 µM; in assay [2], “Phenotype: Inactive; Curve_Description: None”.

Take `CN(C)c1cc2c(Nc3ccc4nc(Cc5ccccc5)[nH]c4c3)ncnc2cn1` [GW301888X]: the AC50 in assay [1] (read-out: AC50) was determined as 18.3 µM; in assay [2] (read-out: AC50) it was 16.3 µM.

In the case of `CCn1c(-c2nonc2N)nc2c(C#CC(C)(C)O)ncc(OCC3CCNCC3)c21.O=C(O)C(F)(F)F` [GSK-554170A], the AC50 entry in assay [1] and in assay [2] was “Phenotype: Inactive; Curve_Description: None” in each case.

With `COc1ccc(-c2ccncc2)cc1C(N)=O` [GSK-605714A], the AC50 result in assay [1] and in assay [2] was “Phenotype: Inactive; Curve_Description: None” throughout.

For the compound `c1ccc(COc2ccc(Nc3ncnc4ccc(-c5ccco5)cc34)cc2)cc1` [GW284372X], the AC50 result is “Phenotype: Inactive; Curve_Description: None” in assay [1] and 29.1 µM in assay [2] (read-out: AC50).

As for `CCc1nn2ncccc2c1-c1ccnc(NC2CC2)n1` [GW683768X], the AC50 entry in assay [1] and in assay [2] was “Phenotype: Inactive; Curve_Description: None” each time.

Consider `CCn1c(-c2nonc2N)nc2c(C#CC(C)(C)O)nc(CN3CCCC3)cc21` [GSK-1000163A], for which the AC50 entry in assay [1] and in assay [2] was “Phenotype: Inactive; Curve_Description: None” throughout.

`COc1cccc(-n2nc(C)c3c(N/N=C(\C)c4ccncc4)ncnc32)c1` [GW809885X]: the AC50 entry in assay [1] and in assay [2] was “Phenotype: Inactive; Curve_Description: None” throughout.

`NS(=O)(=O)c1ccc(-c2ccc3c(NC(=O)C4CC4)n[nH]c3c2)cc1`: the AC50 entry in assay [1] and in assay [2] was “Phenotype: Inactive; Curve_Description: None” throughout.

Turning to `FC(F)(F)c1cccc(Nc2nccc(-c3cnn4nc(-c5ccccc5)ccc34)n2)c1` [GW819077X], the AC50 entry in assay [1] and in assay [2] was “Phenotype: Inactive; Curve_Description: None” in each case.

Regarding `O=C(NCC1CC1)c1ccc(-c2cccc(C(=O)NC3CC3)c2)cc1` [GW806776X], the AC50 in assay [1] (read-out: AC50) was 7.3 µM; in assay [2] (read-out: AC50), 9.19 µM.

`Nc1nccc(-c2c(-c3ccc(F)cc3)ncn2CCCN2CCOCC2)n1`: the AC50 entry in assay [1] and in assay [2] was “Phenotype: Inactive; Curve_Description: None” each time.

As to `[O-][S+]1CCN(Cc2ccc(-c3ccc4ncnc(Nc5ccc(OCc6ccccc6)c(Cl)c5)c4c3)o2)CC1` [GW583373A], the AC50 in assay [1] (read-out: AC50) came out at 0.0005 µM; in assay [2] (read-out: AC50) it was 14.6 µM.

Consider `COc1ccc(Nc2ncc(-c3ccccc3)o2)cc1OC.Cl` [GW575533A], for which the AC50 result is “Phenotype: Inactive; Curve_Description: None” in assay [1] and 5.8 µM in assay [2] (read-out: AC50).

Consider `CCC(=O)Nc1ccc(C)c(-c2ccc(C(=O)NCC3CC3)cc2)c1` [GW796921X], for which the AC50 result in assay [1] was “Phenotype: Inactive; Curve_Description: None”; in assay [2] (read-out: AC50), 18.3 µM.

Regarding `Cc1nnc(-c2ccc(C)c(-c3ccc(C(=O)Nc4cccc(C#N)c4)cc3)c2)o1` [GW607117X], the AC50 result in assay [1] was “Phenotype: Inactive; Curve_Description: None”; in assay [2] (read-out: AC50), 41.1 µM.

As for `CCN1CCC(C(=O)Nc2n[nH]c3nnc(-c4cccc(F)c4F)cc23)CC1.Cl`, the AC50 result in assay [1] and in assay [2] was “Phenotype: Inactive; Curve_Description: None” each time.

`NS(=O)(=O)c1ccc(N/N=C2\C(=O)Nc3ccc4ncccc4c32)cc1` [GW305178X]: the results for the AC50 in assay [1] (read-out: AC50) and in assay [2] (read-out: AC50) were 23.1 µM and 29.1 µM, respectively.

For the compound `Cl.ON=C1CCc2cc(-c3nc(C4CCNCC4)[nH]c3-c3ccncc3)ccc21`, the AC50 result in assay [1] and in assay [2] was “Phenotype: Inactive; Curve_Description: None” in each case.

On to `CNC(=O)c1cncc(/C=C/c2ccccc2Cl)c1` [GW445017X], for which the AC50 result in assay [1] is “Phenotype: Inactive; Curve_Description: None”; in assay [2] (read-out: AC50), 9.19 µM.

`CS(=O)(=O)CCNCc1ccc(-c2ccc3ncnc(Nc4ccc(OCc5ccccc5)c(C(F)(F)F)c4)c3c2)o1.Cl` [GW574782A]: the AC50 entry in assay [1] and in assay [2] was “Phenotype: Inactive; Curve_Description: None” each time.

Take `CCn1c(-c2nonc2N)nc2cncc(C(=O)NCCNC)c21` [GW876790X]: the AC50 result in assay [1] and in assay [2] was “Phenotype: Inactive; Curve_Description: None” throughout.

On to `CCCN1CCC(c2ccc(Nc3nc(Nc4cc(F)ccc4C(N)=O)c4cc[nH]c4n3)c(OC)c2)CC1` [GSK-1326255A], for which the results for the AC50 in assay [1] (read-out: AC50) and in assay [2] were 18.3 µM and “Phenotype: Inactive; Curve_Description: None”, respectively.

Take `Cl.c1ccc(-c2nc3n(c2-c2ccc4c(c2)OCO4)CCC3)nc1`: the AC50 entry in assay [1] and in assay [2] was “Phenotype: Inactive; Curve_Description: None” in each case.

For `O=C1Nc2ccc(C(=O)c3ccco3)cc2C1=Cc1cc(Cl)c(O)c(Cl)c1` [GW406108X], the AC50 in assay [1] (read-out: AC50) worked out at 16.3 µM; in assay [2] (read-out: AC50) it was 18.3 µM.

`Cc1cc(-c2ccco2)cc(C)c1/C=C/c1cncc(-c2nn[nH]n2)c1.Cl` [GW458344A]: the AC50 result in assay [1] was “Phenotype: Inactive; Curve_Description: None”; in assay [2] (read-out: AC50), 20.6 µM.

As to `NS(=O)(=O)c1cccc(N/C=C2\C(=O)Nc3ccccc32)c1` [GW275616X], the AC50 result in assay [1] was “Phenotype: Inactive; Curve_Description: None”; in assay [2] (read-out: AC50), 18.3 µM.

In the case of `Cl.N#Cc1cccc(Nc2ncc(-c3ccccc3)o2)c1` [GW627834A], the AC50 entry in assay [1] is “Phenotype: Inactive; Curve_Description: None”; in assay [2] (read-out: AC50), 1.03 µM.

As to `NS(=O)(=O)c1ccc(N/N=C2\C(=O)Nc3ccc(C(=O)NCCc4c[nH]cn4)cc32)cc1` [GW300660X], the AC50 in assay [1] (read-out: AC50) was 16.3 µM; in assay [2] it was “Phenotype: Inactive; Curve_Description: None”.

On to `COc1ccc(-c2cc(-c3c[nH]nc3-c3ccccn3)ccn2)cc1` [GW679410X], for which the AC50 result was “Phenotype: Inactive; Curve_Description: None” in assay [1] and 16.3 µM in assay [2] (read-out: AC50).

`COc1ccc(-c2cc3c(N)ncnc3o2)cc1` [GW642138X]: the half-maximal activity concentration (AC50) entry was “Phenotype: Inactive; Curve_Description: None” in assay [1] and 6.51 µM in assay [2] (read-out: AC50).

Regarding `Cl.Nc1ncnc2occ(-c3ccc(NC(=O)Nc4cc(C(F)(F)F)ccc4F)cc3)c12` [GW770249A], the AC50 entry in assay [1] and in assay [2] was “Phenotype: Inactive; Curve_Description: None” in each case.

Regarding `COc1cc2ncnc(Nc3ccc(C)c(O)c3)c2cc1OC.Cl` [GW410563A], the AC50 entry in assay [1] and in assay [2] was “Phenotype: Inactive; Curve_Description: None” throughout.

As to `COc1cc(/C=N/Nc2ncnc3c2cnn3C(C)C)ccc1O` [GW644007X], the values for the AC50 result in assay [1] and in assay [2] (read-out: AC50) were “Phenotype: Inactive; Curve_Description: None” and 5.8 µM, respectively.

For `COc1cc(C=NNc2ncnc3c2cnn3-c2ccccc2)ccc1O` [GW513184X], the AC50 result in assay [1] and in assay [2] was “Phenotype: Inactive; Curve_Description: None” in each case.

On to `CCn1c(-c2nonc2N)nc2cnc(Oc3cccc(NC(=O)c4ccc(OCCN5CCOCC5)cc4)c3)cc21.Cl` [GSK-269962B], for which the AC50 result in assay [1] and in assay [2] was “Phenotype: Inactive; Curve_Description: None” each time.

Turning to `COc1cc2c(cc1Nc1nc(Nc3ccsc3C(N)=O)c3cc[nH]c3n1)N(C(=O)CN(C)C)CCC2(C)C` [GSK-2163632A], the AC50 entry in assay [1] and in assay [2] was “Phenotype: Inactive; Curve_Description: None” each time.

As for `Cc1nc(-c2ccccc2)n2nc(NCCCN3CCOCC3)ncc12` [GW874091X], the AC50 result in assay [1] and in assay [2] was “Phenotype: Inactive; Curve_Description: None” throughout.

As for `COc1cc2c(cc1Nc1nc(Nc3cccc(F)c3C(N)=O)c3cc[nH]c3n1)N(C(=O)CN1CCN(C(C)C)CC1)CC2` [GSK-1751853A], the AC50 in assay [1] (read-out: AC50) was 36.6 µM; in assay [2] it was “Phenotype: Inactive; Curve_Description: None”.

With `Nc1nc(-c2ccc(F)cc2)c(-c2ccc3ncccc3n2)s1` [GW785804X], the AC50 result in assay [1] and in assay [2] was “Phenotype: Inactive; Curve_Description: None” throughout.
